Values joined by “and” are separate entries in the source; they are usually repeats but may differ in a detail not shown here. Equal entries are not always repeated. Where two headings read alike, the source gives them in different places.
Key:
MAO-A = target: T1, MAO-A (Cavia porcellus, UniProt H0UVA2); assay: MAO-A inhibition in guinea pig hippocampal homogenates in vitro; assay type: biochemical; set-up: by human platelets and/or guinea pig hippocampal homogenates; from tissue; host or cells: guinea pig hippocampus homogenate; details: for reduction in potency compared to selegiline (value in parentheses): MAO-A IC50, guinea pig hippocampal cortex
T1 sequence (H0UVA2 1-461): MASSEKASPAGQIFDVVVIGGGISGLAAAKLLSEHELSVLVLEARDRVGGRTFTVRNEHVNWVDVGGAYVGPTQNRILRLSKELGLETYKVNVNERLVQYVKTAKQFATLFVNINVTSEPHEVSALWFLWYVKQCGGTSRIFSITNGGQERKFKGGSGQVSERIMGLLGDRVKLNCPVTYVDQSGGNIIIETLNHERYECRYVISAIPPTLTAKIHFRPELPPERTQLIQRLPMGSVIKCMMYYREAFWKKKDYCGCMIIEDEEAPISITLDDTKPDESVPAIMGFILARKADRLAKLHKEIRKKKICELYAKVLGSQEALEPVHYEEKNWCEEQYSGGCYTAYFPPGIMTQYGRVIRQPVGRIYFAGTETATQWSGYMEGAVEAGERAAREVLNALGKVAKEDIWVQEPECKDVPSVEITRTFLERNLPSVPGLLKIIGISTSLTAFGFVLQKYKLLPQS
Source text: Human platelet MAO is comprised exclusively of the type-B isoform of the enzyme. […] The present study also examined the two enantiomers of DMS for inhibitory activity with respect to the MAO-A and MAO-B in guinea pig hippocampal tissue. Guinea pig brain tissue is an excellent animal model for studying brain dopamine metabolism, the enzyme kinetics of the multiple forms of MAO and the inhibitory properties of novel agents that interact with these enzymes. The multiple forms of MAO in this animal species show similar kinetic properties to those found in human brain tissue. Finally, the test agents were administered to guinea pigs and the extent to which they might act as inhibitors of brain MAO in vivo was assessed.
In vitro: The test system utilized the in vitro conversion of specific substrates of MAO-A (^14C-serotonin) and MAO-B (^14C-phenylethylamine) by human platelets and/or guinea pig hippocampal homogenates. […] A percent inhibition was calculated from these values.

γ-interferon production = γ-interferon production by concanavalin A-stimulated spleen cells of treated old rats; assay type: in vivo, rat; details: for IFN-γ % control / IFN-γ U/ml mean: old rats, ip daily 60 days, 1.0 mg/kg (for DMS enantiomers)
Method: Rats were divided into the following experimental groups:
(§1) Rats were administered saline or test agent ip, daily for 60 days. They were then maintained for an additional “wash out” period of 10 days during which time no treatment was given. At the end of this time, animals were sacrificed and their spleens were removed. The spleen cells were then assayed for a variety of factors which are indicative of immune system function. Specifically, standard tests were employed to determine the following:
1) in vitro production of γ-interferon by concanavalin A-stimulated spleen cells;

[1] = system: cultured rat mesencephalic cells exposed to NMDA; assay: NMDA model of cell death: [3H]-dopamine uptake; details: 100 μM NMDA exposure
wobbler mouse = assay: Wobbler mouse model of motor neuron disease; assay type: in vivo; details: 0.1 mg/kg daily intra-peritoneal for 30 days; range in parentheses
Method: The ability of the enantiomers of DMS to prevent neurological deterioration was examined by administering the agents to the wobbler mouse, an animal model of motor neuron diseases, particularly amyotrophic lateral sclerosis (ALS).
A 0.1 mg/kg dose of R(−)DMS, S(+)DMS or placebo was administered to wobbler mice by daily intra-peritoneal injection for a period of 30 days in a randomized, double-blind study. At the end of this time mice were examined for grip strength, running time, resting locomotive activity and graded for semi-quantitative paw posture abnormalities, and semi-quantitative walking abnormalities. The investigators who prepared and administered the test drugs to the animals were different than those who analyzed behavioral changes.
Assays and grading were performed essentially as described in Mitsumoto et al., Ann. Neurol. 36:142-148 (1994). Grip strength of the front paws of a mouse was determined by allowing the animal to grasp a wire with both paws. […] The reading on the dynamometer at the point of release is taken as a measure of grip strength.
Running time is defined as the shortest time necessary to traverse a specified distance, e.g. 2.5 feet and the best time of several trials is recorded. […]
Locomotive activity is determined by transferring animals to an examination area in which the floor is covered with a square grid. […]

interleukin-2 production = assay: Concanavalin A-induced interleukin-2 production by spleen cells of treated old rats; assay type: in vivo, rat; details: for IL-2 % control / IL-2 U/ml mean: ip daily 60 days
Method: The present experiments utilized a rat model to examine the ability of R(−)DMS and S(+)DMS to restore immunological function. Rats were divided into the following experimental groups:
as §1
2) in vitro concanavalin A-induced production of interleukin-2;

rat spleens = assay: Histological immunofluorescence of spleen innervation in old rats; assay type: in vivo; details: ip daily 60 days
Method: as §1
Histological immunofluorescence studies show a dramatic loss of innervation in rat spleens with age.

[2] = system: cultured rat mesencephalic cells; assay: Medium change (glutamate receptor dependent) model of cell death: [3H]-dopamine uptake; details: for Dopamine uptake, % control, Mean / Dopamine uptake, % control, individual cultures / Dopamine uptake, counts/min, Mean / Dopamine uptake, counts/min, individual cultures / more axonal growth and terminal axonal survival compared to untreated control cells / 3H-Dopamine uptake as a percentage + SEM: medium change model; for neuron protection by measurement of dopamine uptake (FIG. 15): glutamate receptor dependent model; for more axonal growth and terminal axonal survival compared to untreated control cells / 3H-Dopamine uptake as a percentage + SEM: 10 μM; for 3H-Dopamine uptake as a percentage + SEM: control = 100
Method: Preparations are then added to 10 ml Ecoscint (National Diagnostics) and counted in a scintillation spectrometer.
In these experiments, cells were plated and allowed to stabilize for several days.

[3] = 1.0 mg/kg (for DMS enantiomers)

Compound: desmethylselegiline [R(−)DMS]
- MAO-A % Inhibition x = SEM (MAO-A; 300 nM, guinea pig hippocampus): 4.8 ± 2.1%
- MAO-A % Inhibition x = SEM (MAO-A; 1 μM, guinea pig hippocampus): 4.2 ± 1.5%
- MAO-A % Inhibition x = SEM (MAO-A; 3 μM, guinea pig hippocampus): 10.5 ± 2.0%
- MAO-A % Inhibition x = SEM (MAO-A; 10 μM, guinea pig hippocampus): 19.0 ± 1.3%
- MAO-A % Inhibition x = SEM (MAO-A; 100 μM, guinea pig hippocampus): 64.2 ± 1.5%
- MAO-A % Inhibition x = SEM (MAO-A; 1 mM, guinea pig hippocampus): 96.5 ± 1.2%
- reduction in potency compared to selegiline (value in parentheses) (MAO-A): 20
- IC50 (MAO-A; read-out: IC50 for MAO-A in Guinea Pig Hippocampal Cortex): 50 µM
- IFN-γ % control (γ-interferon production): 777%
- IFN-γ U/ml mean (γ-interferon production): 2728 U/ml
- Dopamine uptake, % control, Mean ([1]; 0.5 μM): 138.6%
- Dopamine uptake, % control, individual cultures ([1]; 0.5 μM): 167.3% and 138.9% and 132.9% and 133.6% and 120.4%
- Dopamine uptake, counts/min, Mean ([1]; 0.5 μM): 9365.2 counts/min
- Dopamine uptake, counts/min, individual cultures ([1]; 0.5 μM): 11304 counts/min and 9385 counts/min and 8976 counts/min and 9028 counts/min and 8133 counts/min
- Dopamine uptake, % control, Mean ([1]; 5.0 μM): 177.6%
- Dopamine uptake, % control, individual cultures ([1]; 5.0 μM): 163.0% and 199.9% and 169.8% and 204.0% and 151.4%
- Dopamine uptake, counts/min, Mean ([1]; 5.0 μM): 12001.8 counts/min
- Dopamine uptake, counts/min, individual cultures ([1]; 5.0 μM): 11014 counts/min and 13509 counts/min and 11471 counts/min and 13786 counts/min and 10229 counts/min
- Dopamine uptake, % control, Mean ([1]; 50 μM): 304.3%
- Dopamine uptake, % control, individual cultures ([1]; 50 μM): 262.1% and 341.8% and 318.7% and 259.3% and 339.9%
- Dopamine uptake, counts/min, Mean ([1]; 50 μM): 20562.2 counts/min
- Dopamine uptake, counts/min, individual cultures ([1]; 50 μM): 17708 counts/min and 23090 counts/min and 21530 counts/min and 17520 counts/min and 22963 counts/min
- Mean Grip Strength (gm) (wobbler mouse): 20 (0-63) gm
- IL-2 production after treatment (interleukin-2 production): not enhanced
- IL-2 % control (interleukin-2 production; [3]): 223%
- IL-2 U/ml mean (interleukin-2 production; [3]): 43.7 U/ml
- IL-2 U/ml mean (interleukin-2 production; […] (for R(−)DMS by group order)): 64.54 U/ml
- IL-2 U/ml mean (interleukin-2 production; dose not printed in row, by group order […]): 55.17 U/ml
- innervation in the spleens, histological examination (rat spleens): significant increase in innervation
- Dopamine uptake, % control, Mean ([2]; 0.5 μM): 141.9%
- Dopamine uptake, % control, individual cultures ([2]; 0.5 μM): 142.3% and 152.4% and 142.6% and 130.4%
- Dopamine uptake, counts/min, Mean ([2]; 0.5 μM): 29800.75 counts/min
- Dopamine uptake, counts/min, individual cultures ([2]; 0.5 μM): 29885 counts/min and 32002 counts/min and 29934 counts/min and 27382 counts/min
- neuron protection by measurement of dopamine uptake (FIG. 15) ([2]; 5 μM): neuron protection
- Dopamine uptake, % control, Mean ([2]; 5.0 μM): 153.7%
- Dopamine uptake, % control, individual cultures ([2]; 5.0 μM): 155.2% and 142.1% and 173.2% and 144.5%
- Dopamine uptake, counts/min, Mean ([2]; 5.0 μM): 32280 counts/min
- Dopamine uptake, counts/min, individual cultures ([2]; 5.0 μM): 32577 counts/min and 29831 counts/min and 36370 counts/min and 30342 counts/min
- more axonal growth and terminal axonal survival compared to untreated control cells [2]: 40%
- 3H-Dopamine uptake as a percentage + SEM [2]: 140.82 ± 26.20%
- neuron protection by measurement of dopamine uptake (FIG. 15) ([2]; 50 μM): neuron protection
- Dopamine uptake, % control, Mean ([2]; 50 μM): 185.5%
- Dopamine uptake, % control, individual cultures ([2]; 50 μM): 178.3% and 186.7% and 186.3% and 190.6%
- Dopamine uptake, counts/min, Mean ([2]; 50 μM): 38944.75 counts/min
- Dopamine uptake, counts/min, individual cultures ([2]; 50 μM): 37440 counts/min and 39200 counts/min and 39126 counts/min and 40013 counts/min

Compound: C#CCN[C@@H](C)Cc1ccccc1 (single isomer, unassigned) [S(+)DMS, ent-desmethylselegiline]
- IC50 (MAO-A): 100 µM
- inhibition at 1 µM (MAO-A; 1 μM, guinea pig hippocampus, read-out: MAO-A % Inhibition x = SEM): 3.3 ± 1.5%
- inhibition at 3 µM (MAO-A; 3 μM, guinea pig hippocampus, read-out: MAO-A % Inhibition x = SEM): 4.3 ± 1%
- inhibition at 10 µM (MAO-A; 10 μM, guinea pig hippocampus, read-out: MAO-A % Inhibition x = SEM): 10.5 ± 1.47%
- inhibition at 100 µM (MAO-A; 100 μM, guinea pig hippocampus, read-out: MAO-A % Inhibition x = SEM): 48.4 ± 1.8%
- inhibition at 1000 µM (MAO-A; 1 mM, guinea pig hippocampus, read-out: MAO-A % Inhibition x = SEM): 92.7 ± 2.5%
- inhibition at 10000 µM (MAO-A; 10 mM, guinea pig hippocampus, read-out: MAO-A % Inhibition x = SEM): 99.6 ± 0.35%
- reduction in potency compared to selegiline (value in parentheses) (MAO-A): 40
- γ-interferon levels in old rats after administration (γ-interferon production; most dramatic increases at 1.0 mg/kg body weight): restoration of γ-interferon levels
- IFN-γ % control (γ-interferon production): 261%
- IFN-γ U/ml mean (γ-interferon production): 918 U/ml
- Dopamine uptake, % control, Mean ([1]; 0.5 μM): 187.4%
- Dopamine uptake, % control, individual cultures ([1]; 0.5 μM): 164.2% and 179.0% and 181.6% and 242.7% and 169.2%
- Dopamine uptake, counts/min, Mean ([1]; 0.5 μM): 12658.2 counts/min
- Dopamine uptake, counts/min, individual cultures ([1]; 0.5 μM): 11096 counts/min and 12092 counts/min and 12269 counts/min and 16399 counts/min and 11435 counts/min
- Dopamine uptake, % control, Mean ([1]; 5.0 μM): 246.9%
- Dopamine uptake, % control, individual cultures ([1]; 5.0 μM): 229.9% and 300.6% and 245.4% and 235.8% and 222.8%
- Dopamine uptake, counts/min, Mean ([1]; 5.0 μM): 16681.6 counts/min
- Dopamine uptake, counts/min, individual cultures ([1]; 5.0 μM): 15535 counts/min and 20313 counts/min and 16579 counts/min and 15929 counts/min and 15052 counts/min
- Dopamine uptake, % control, Mean ([1]; 50 μM): 448.9%
- Dopamine uptake, % control, individual cultures ([1]; 50 μM): 371.5% and 384.0% and 422.5% and 577.9% and 488.8%
- Dopamine uptake, counts/min, Mean ([1]; 50 μM): 30331.2 counts/min
- Dopamine uptake, counts/min, individual cultures ([1]; 50 μM): 25101 counts/min and 25944 counts/min and 28545 counts/min and 39042 counts/min and 33024 counts/min
- Mean Grip Strength (gm) (wobbler mouse): 14 (7-20) gm
- IL-2 production after treatment (interleukin-2 production): not enhanced
- IL-2 % control (interleukin-2 production; [3]): 291%
- IL-2 U/ml mean (interleukin-2 production; [3]): 57.12 U/ml
- innervation in the spleens, histological examination (rat spleens): did not show any effect
- more axonal growth and terminal axonal survival compared to untreated control cells [2]: 134%
- 3H-Dopamine uptake as a percentage + SEM [2]: 234 ± 38.36%
